Type in all cases: in vivo
In assay [1] the test system is Diabrotica balteata (Corn root worm). In words: Diabrotica balteata (Corn root worm). The note with it: 96 h, application rate of 200 ppm, maize sprouts sprayed, L2 larvae, 4 days after infestation, read-out: effect in at least one of the two categories (mortality or growth inhibition). On the procedure: Example B2: Diabrotica balteata (Corn root worm)
Maize sprouts placed onto an agar layer in 24-well microtiter plates were treated with aqueous test solutions prepared from 10′000 ppm DMSO stock solutions by spraying. After drying, the plates were infested with L2 larvae (6 to 10 per well). The samples were assessed for mortality and growth inhibition in comparison to untreated samples 4 days after infestation.

Assay [2] deals with Myzus persicae (Green Peach Aphid). Kind of assay: Myzus persicae (Green Peach Aphid) Feeding/Contact Activity, eggplant leaf discs. The conditions noted are these: foliar, 144 h, application rate of 200 ppm, eggplant leaf discs sprayed, aphid population of mixed ages, 6 days after infestation, read-out: growth inhibition. The source says:
Example B8: Myzus persicae (Green Peach Aphid) Feeding/Contact Activity Eggplant leaf discs were placed onto agar in a 24-well microtiter plate and sprayed with aqueous test solutions prepared from 10′000 ppm DMSO stock solutions. After drying, the leaf discs were infested with an aphid population of mixed ages. […]

For assay [3] the test system is unchanged. In words: Myzus persicae (Green Peach Aphid). Intrinsic Activity. The conditions noted are these: 120 h, test rate of 12 ppm, mixed with sucrose solution, feeding through Parafilm, 5 days after infestation. From the text:
Example B7: Myzus persicae (Green Peach Aphid). Intrinsic Activity
Test compounds prepared from 10′000 ppm DMSO stock solutions were applied by pipette into 24-well microtiter plates and mixed with sucrose solution. The plates were closed with a stretched Parafilm. A plastic stencil with 24 holes was placed onto the plate and infested pea seedlings were placed directly on the Parafilm. The infested plate was closed with a gel blotting paper and another plastic stencil and then turned upside down. The samples were assessed for mortality 5 days after infestation.

The test system of assay [4] is Plutella xylostella (Diamond back moth). Kind of assay: Plutella xylostella (Diamond back moth). The note with it: 192 h, application rate of 200 ppm, artificial diet treated by pipetting, Plutella eggs, 8 days after infestation, read-out: effect in at least one of the two categories (mortality or growth inhibition). On the procedure: After drying, Plutella eggs were pipetted through a plastic stencil onto a gel blotting paper and the plate was closed with it. The samples were assessed for mortality and growth inhibition in comparison to untreated samples 8 days after infestation.

Assay [5] concerns Myzus persicae (Green Peach Aphid). In words: Myzus persicae (Green Peach Aphid): Feeding/Contact Activity, sunflower leaf discs. The note with it: foliar, 144 h, application rate of 200 ppm, sunflower leaf discs sprayed, aphid population of mixed ages, 6 days after infestation. On the procedure: Example B6: Myzus persicae (Green Peach Aphid):Feeding/Contact Activity
Sunflower leaf discs were placed onto agar in a 24-well microtiter plate and sprayed with aqueous test solutions prepared from 10′000 ppm DMSO stock solutions. After drying, the leaf discs were infested with an aphid population of mixed ages. The samples were assessed for mortality 6 days after infestation.

The test system of assay [6] is Frankliniella occidentalis (Western Flower Thrips). In words: Frankliniella occidentalis (Western Flower Thrips) Feeding/Contact Activity, bean leaf discs. The note with it: foliar, 96 h, application rate of 200 ppm, bean leaf discs sprayed, population of mixed ages, 4 days after infestation, read-out: growth inhibition. How it is done: Example B5: Frankliniella occidentalis (Western Flower Thrips) Feeding/Contact Activity Bean leaf discs were placed on agar in 24-well microtiter plates and sprayed with aqueous test solutions prepared from […] stock solutions. After drying the leaf discs were infested with a Frankliniella population of mixed ages. The samples were assessed for mortality 4 days after infestation.

Assay [7] concerns Euschistus heros (Neotropical Brown Stink Bug). In words: Euschistus heros (Neotropical Brown Stink Bug). The note with it: 120 h, application rate of 200 ppm, soybean leaves sprayed, N2 nymphs, 5 days after infestation, read-out: effect in at least one of the two categories (mortality or growth inhibition). On the procedure: Example B3: Euschistus heros (Neotropical Brown Stink Bug)
Soybean leaves on agar in 24-well microtiter plates were sprayed with aqueous test solutions prepared from 10′000 ppm DMSO stock solutions. After drying the leaves were infested with N2 nymphs. The samples were assessed for mortality and growth inhibition in comparison to untreated samples 5 days after infestation.

The subject of assay [8] is Frankliniella occidentalis (Western Flower Thrips). Kind of assay: Frankliniella occidentalis (Western Flower Thrips): Feeding/Contact Activity, sunflower leaf discs. The conditions noted are these: foliar, 168 h, application rate of 200 ppm, sunflower leaf discs sprayed, population of mixed ages, 7 days after infestation. How it is done:
Example B4: Frankliniella occidentalis (Western Flower Thrips):Feeding/Contact Activity
Sunflower leaf discs were placed on agar in 24-well microtiter plates and sprayed with aqueous test solutions prepared from […] stock solutions. After drying the leaf discs were infested with a Frankliniella population of mixed ages. The samples were assessed for mortality 7 days after infestation.

Assay [9] has as its system Tetranychus urticae (Two-Spotted Spider Mite). In words: Tetranychus urticae (Two-Spotted Spider Mite): Feeding/Contact Activity. The conditions noted are these: foliar, 192 h, application rate of 200 ppm, bean leaf discs sprayed, mite population of mixed ages (mobile stages), 8 days after infestation. How it is done: Example B11: Tetranychus urticae (Two-Spotted Spider Mite):Feeding/Contact Activity
Bean leaf discs on agar in 24-well microtiter plates were sprayed with aqueous test solutions prepared from 10,000 ppm DMSO stock solutions. After drying the leaf discs were infested with a mite population of mixed ages. The samples were assessed for mortality on mixed population (mobile stages) 8 days after infestation.

Some results are limits rather than exact numbers.

For `CCC(=O)NC1(c2cc(OC[C@H](C)NS(=O)(=O)C(F)(F)F)ccc2Cl)CC1` [P-14, N-[1-[2-chloro-5-[(2S)-2-(trifluoromethylsul-fonylamino)propoxy]phenyl]cyclopropyl] propanamide], the percent effect (mortality or growth inhibition) at 200 ppm in assay [1] is not below 80%.

Take `C[C@@H](COc1cnc(Cl)c(CNC(=O)C(F)(Cl)Cl)c1)NS(=O)(=O)C(F)(F)F` [P-29, 2,2-dichloro-N-[[2-chloro-5-[(2S)-2-(trifluoromethylsul-fonylamino)propoxy]-3-pyridyl]methyl]-2-fluoro-acetamide]: the inhibition at 200 ppm in assay [2] was not below 80%.

Consider `C[C@@H](COc1cnc(Cl)c(CNC(=O)C2(C#N)CC2)c1)NS(=O)(=O)C(F)(F)F` [P-23, N-[[2-chloro-5-[(2S)-2-(trifluoromethylsul-fonylamino)propoxy]-3-pyridyl]methyl]-1-cyano-cyclopropane-carboxamide], for which, in assay [2], the inhibition at 200 ppm was not below 80%.

Molecule `C[C@@H](COc1cnc(Cl)c(CNC(=O)C(F)F)c1)NS(=O)(=O)C(F)(F)F` [P-32, N-[[2-chloro-5-[(2S)-2-(trifluoromethylsul-fonylamino)propoxy]-3-pyridyl]methyl]-2,2-difluoro-acetamide] registered a mortality at 12 ppm in [3] not below 80%.

Regarding `C[C@@H](COc1cnc(Cl)c(CNC(=O)C2CC2)c1)NS(=O)(=O)C(F)(F)F` [P-9, N-[[2-chloro-5-[(2S)-2-(trifluoromethylsulfon-ylamino)propoxy]-3-pyridyl]methyl]cyclo-propanecarboxamide], in assay [3], the mortality at 12 ppm was not below 80%. In addition, the percent effect (mortality or growth inhibition) at 200 ppm in assay [4] is not below 80%.

Regarding `CCC(=O)NCc1cc(OC[C@H](C)NS(=O)(=O)C(F)(F)F)cnc1Cl` [P-1], the mortality at 200 ppm in [5] is not below 80%. Further, the mortality at 12 ppm in assay [3] was not below 80%.

As for `C[C@@H](COc1cnc(Cl)c(CNC(=O)C2CC(F)(F)C2)c1)NS(=O)(=O)C(F)(F)F` [P-35, N-[[2-chloro-5-[(2S)-2-(trifluoromethylsul-fonylamino)propoxy]-3-pyridyl]methyl]-3,3-difluoro-cyclobutane-carboxamide], the inhibition at 200 ppm in assay [6] and in [2] was not below 80% throughout.

Molecule `CCC(=O)NCc1cc(OC[C@H](C)NS(=O)(=O)C(F)F)ccc1Cl` [P-11] registered a mortality at 12 ppm in assay [3] not below 80%. Further, the percent effect (mortality or growth inhibition) at 200 ppm in assay [4] is not below 80%.

As to `C[C@@H](COc1cnc(Cl)c(CNC(=O)C2CCCO2)c1)NS(=O)(=O)C(F)(F)F` (stereo partly shown) [P-27], the inhibition at 200 ppm in assay [2] was not below 80%.

On to `CCC(=O)NCc1cc(OC[C@H](C)N(COC)S(=O)(=O)C(F)(F)F)cnc1Cl` [P-5, N-[[2-chloro-5-[(2S)-2-[methoxymethyl(tri-fluoromethylsulfonyl)-amino]propoxy]-3-pyridyl]methyl]propan-amide], for which the mortality at 200 ppm in assay [5] was not below 80%. In [3], this molecule had a mortality at 12 ppm not below 80%. Also, the inhibition at 200 ppm in [2] was not below 80%.

Turning to `C[C@@H](COc1ccc(Cl)c(CNC(=O)C2CSC2)c1)NS(=O)(=O)C(F)(F)F` [P-6], in assay [3], the mortality at 12 ppm is not below 80%.

For `C[C@@H](COc1cnc(Cl)c(CNC(=O)C2CCC2(F)F)c1)NS(=O)(=O)C(F)(F)F` (stereo partly shown) [P-22], the inhibition at 200 ppm in assay [6] was not below 80%.

For the molecule `CCC(=O)NCc1cc(OC[C@H](C)NS(=O)(=O)C(F)(F)F)ccc1Cl` [P-4], the percent effect (mortality or growth inhibition) at 200 ppm in assay [1], in [7] and in [4] was not below 80% in each case. Moreover, the mortality at 200 ppm in assay [8], in assay [5] and in assay [9] was not below 80% each time. In [3], this molecule returned a mortality at 12 ppm not below 80%. Also, the inhibition at 200 ppm in assay [2] is not below 80%.

Take `C[C@@H](COc1cnc(Cl)c(CNC(=O)C23CC(C(F)(F)F)(C2)C3)c1)NS(=O)(=O)C(F)(F)F` [P-25, N-[[2-chloro-5-[(2S)-2-(trifluoromethylsulfon-ylamino)propoxy]-3-pyridyl]methyl]-3-(tri-fluoromethyl)bicyclo [1.1.1]pentane-1-carbox-amide]: in assay [6], the inhibition at 200 ppm is not below 80%.

Turning to `CCC(=O)NCc1cc(OC[C@H](C)NS(=O)(=O)c2cnc(Cl)c(Cl)c2)ccc1Cl` [P-13, N-[[2-chloro-5-[(2S)-2-[(5,6-dichloro-3-pyridyl)sulfonylamino]propoxy]phenyl]meth-yl]propanamide], the percent effect (mortality or growth inhibition) at 200 ppm in assay [1] and in assay [4] was not below 80% each time.

On to `C[C@@H](COc1cnc(Cl)c(CNC(=O)C2CCC2)c1)NS(=O)(=O)C(F)(F)F` [P-24], for which the inhibition at 200 ppm in [6] and in assay [2] was not below 80% in each case. In assay [3], this molecule had a mortality at 12 ppm not below 80%.

On to `COCC(=O)NCc1cc(OC[C@H](C)N(C(=O)COC)S(=O)(=O)C(F)(F)F)ccc1Cl` [P-16, N-[[2-chloro-5-[(2S)-2-[(2-methoxyacetyl)-(trifluoromethylsulfon-yl)amino]propoxy]phenyl]methyl]-2-methoxy-acetamide], for which the mortality at 12 ppm in [3] is not below 80%. The inhibition at 200 ppm in assay [2] is not below 80%.

In the case of `C[C@@H](COc1cnc(Cl)c(CNC(=O)CC2CC2)c1)NS(=O)(=O)C(F)(F)F` [P-21, N-[[2-chloro-5-[(2S)-2-(trifluoromethylsul-fonylamino)propoxy]-3-pyridyl]methyl]-2-cyclopropyl-acetamide], the mortality at 12 ppm in assay [3] was not below 80%. Also, in assay [2], the inhibition at 200 ppm was not below 80%.

Take `CCC(=O)NCc1cc(OC[C@H](C)NS(=O)(=O)C(Cl)Cl)ccc1Cl` [P-10]: the mortality at 12 ppm in [3] is not below 80%.

For the molecule `C[C@@H](COc1ccc(Cl)c(CNC(=O)C2CC2)c1)NS(=O)(=O)C(F)(F)F` [P-2], the mortality at 200 ppm in assay [5] and in assay [9] was not below 80% each time. In assay [3], this molecule gave a mortality at 12 ppm not below 80%. Besides, in assay [2], the inhibition at 200 ppm was not below 80%. Moreover, the percent effect (mortality or growth inhibition) at 200 ppm in [4] was not below 80%.

In the case of `CCC(=O)NCc1cc(OC[C@H](C)NS(=O)(=O)c2ccc(C#N)c(Cl)c2)ccc1Cl` [P-12, N-[[2-chloro-5-[(2S)-2-[(3-chloro-4-cyano-phenyl)sulfonylamino]propoxy]phenyl]meth-yl]propanamide], the percent effect (mortality or growth inhibition) at 200 ppm in [1] is not below 80%.

Regarding `C[C@@H](COc1ccc(Cl)c(CNC(=O)C2CCC2)c1)N(C(=O)C1CCC1)S(=O)(=O)C(F)(F)F` [P-8], in [3], the mortality at 12 ppm was not below 80%. Further, the percent effect (mortality or growth inhibition) at 200 ppm in assay [4] was not below 80%.

In assay [9], `CCC(=O)NC(C)(C)c1cc(OC[C@H](C)NS(=O)(=O)C(F)(F)F)ccc1Cl` [P-15, N-[1-[2-chloro-5-[(2S)-2-(trifluoromethylsul-fonylamino)propoxy]phenyl]-1-methylethyl] propanamide] had a mortality at 200 ppm not below 80%.

For the molecule `C[C@@H](COc1ccc(Cl)c(CNC(=O)C2CCC2)c1)NS(=O)(=O)C(F)(F)F` [P-7], in assay [3], the mortality at 12 ppm is not below 80%. Further, in [4], the percent effect (mortality or growth inhibition) at 200 ppm was not below 80%.

Regarding `C[C@@H](COc1cnc(Cl)c(CNC(=O)CC2CC2(Cl)Cl)c1)NS(=O)(=O)C(F)(F)F` (stereo partly shown) [P-30], the inhibition at 200 ppm in [2] was not below 80%.

The inhibition is how much of the control response was suppressed. As a reminder, the mortality is the share of the test organisms that died. The low end stands for more survivors, the high end for fewer survivors.

The values above are taken from patent US20260215423A1, “NOVEL CARBOXAMIDE AND SULFONAMIDE PESTICIDAL COMPOUNDS” (SYNGENTA CROP PROTECTION AG, priority 2023, published 2026).
